Test system: high-fat and high-fructose-induced NASH model (FFD model)
Assay: high-fat and high-fructose-induced NASH model (fast-food diet model: FFD model), 18 weeks gavage
Format: in vivo, C57BL/6J Jms Slc male mice
Details: for histopathological findings: Fat formation: large fat droplets, number of mice graded ± (Slight) / histopathological findings: Fat formation: large fat droplets, number of mice graded + (Moderate): 8 mice evaluated; for histopathological findings: Fat formation: large fat droplets, number of mice graded ± (Slight) / histopathological findings: Fibrosis, number of mice graded ± (Slight): Vehicle 3; for histopathological findings: Fat formation: large fat droplets, number of mice graded + (Moderate) / histopathological findings: Fibrosis, number of mice graded + (Moderate): Vehicle 5; for histopathological findings: Fibrosis, number of mice graded ± (Slight) / histopathological findings: Fibrosis, number of mice graded + (Moderate): individuals with liver nodules excluded; for number of CD68-positive hCLS in the liver (inhibitory effect on the increase vs Vehicle group): after 18 weeks of administration (FIG. 5); for liver TG (inhibitory effect on the increase vs Vehicle group): after 18 weeks of administration (FIG. 3)
Protocol: In the present Examples, using a high-fat and high-fructose-induced NASH model (fast-food diet model: FFD model), the effect of a test drug was evaluated. For the FFD model, refer to BMC Gastroenterol. 2020; 20: 210 and Am J Physiol Gastrointest Liver Physiol. 2013 Oct. 1; 305(7): G483-95. The test drug was prepared by adding hydrochloride of the compound represented by the formula (1) (hereinafter referred to as “compound 1”) to 0.5% MC and sonicating the mixture. 6-week-old C57BL/6J Jms Slc male mice were fed with standard diet (D09100304, Research Diets, Inc.) or FFD diet for pathogenesis (D09100310N, Research Diets, Inc.) for 20 weeks. Then, the mice were grouped as shown in Table 1 based on three indices, i.e., plasma alanine aminotransferase (ALT) levels, body weight, and fasting blood glucose levels. According to the dosage and usage shown in Table 1, the administration substance was gavaged to each group for 18 weeks. [table] ALT was measured by collecting blood from the tail vein after 12 weeks of administration. An autopsy was performed after 18 weeks of administration, and plasma aspartate aminotransferase (AST), plasma total cholesterol (Tcho), and liver triglyceride (TG) were measured. In addition, the Sirius red-positive area and the number of hepatic crown-like structures (hCLS) were measured by liver pathological analysis. Statistical analysis was performed using GraphPad Prism 6 (GraphPad Software, Inc.). For the Normal group and the Vehicle group, t-test or Mann-Whitney's test was performed. For the Vehicle group and the compound 1 group, Dunnett' multiple comparison test or Dunn's multiple comparison test was performed. Any of the test methods was appropriately selected according to the distribution of each parameter. The significance level of all the tests was set to p=0.05. A liver sample was homogenized in a phosphate buffer and extracted with methanol and chloroform overnight. Then, chloroform and distilled water were further added thereto. The mixture was separated by centrifugation, the chloroform layer was collected, and the solvent was dried. The precipitate was dissolved in isopropanol/TritonX-100, and this was used as a measurement sample, the measurement was carried out using Triglyceride E-Test Wako (FUJIFILM Wako Pure Chemical Corporation). The excised liver was fixed in a 10% neutral buffered formalin solution, and embedded in paraffin and Sirius red-stained specimens were prepared according to standard methods. The Sirius red-stained specimen was used to calculate the positive area. The positive area of the Normal group was averaged and used as the background. A CD68 immunostaining specimen (rabbit anti-CD68 polyclonal antibody [ab125212], Abcam) was prepared, and the number of hCLS was counted.

[1] = compound 1 (60) group, 60 mg/kg/day BID

## CC(C)(Cc1ccc(C(=O)Oc2ccc(C(=N)N)cc2F)s1)C(=O)O [compound 1]
10 mg/kg QD
  histopathological findings: Fat formation: large fat droplets, number of mice graded ± (Slight): 4
  histopathological findings: Fat formation: large fat droplets, number of mice graded + (Moderate): 4
  histopathological findings: Fibrosis, number of mice graded ± (Slight): 6
  histopathological findings: Fibrosis, number of mice graded + (Moderate): 2
30 mg/kg QD
  histopathological findings: Fat formation: large fat droplets, number of mice graded ± (Slight): 2
  histopathological findings: Fat formation: large fat droplets, number of mice graded + (Moderate): 6
  histopathological findings: Fibrosis, number of mice graded ± (Slight): 6
  histopathological findings: Fibrosis, number of mice graded + (Moderate): 1
60 mg/kg/day BID
  histopathological findings: Fat formation: large fat droplets, number of mice graded ± (Slight): 7
  histopathological findings: Fat formation: large fat droplets, number of mice graded + (Moderate): 1
  histopathological findings: Fibrosis, number of mice graded ± (Slight): 6
  histopathological findings: Fibrosis, number of mice graded + (Moderate): 2
Compound 1 (10) group, 10 mg/kg QD
  number of CD68-positive hCLS in the liver (inhibitory effect on the increase vs Vehicle group): statistically significant inhibitory effect
Compound 1 (30) group, 30 mg/kg QD
  liver TG (inhibitory effect on the increase vs Vehicle group): statistically significant inhibitory effect
Compound 1 (60) group, 60 mg/kg/day BID, after 12 weeks and 18 weeks of administration (FIG. 1A, 1B)
  plasma ALT (inhibitory effect on the increase vs Vehicle group): statistically significant inhibitory effect
Compound 1 (60) group, 60 mg/kg/day BID, after 18 weeks of administration (FIG. 1C)
  plasma AST (inhibitory effect on the increase vs Vehicle group): statistically significant inhibitory effect
Compound 1 (60) group, 60 mg/kg/day BID, after 18 weeks of administration (FIG. 2)
  plasma Tcho (inhibitory effect on the increase vs Vehicle group): statistically significant inhibitory effect
[1]
  liver TG (inhibitory effect on the increase vs Vehicle group): statistically significant inhibitory effect
  number of CD68-positive hCLS in the liver (inhibitory effect on the increase vs Vehicle group): statistically significant inhibitory effect
Compound 1 (60) group, 60 mg/kg/day BID, after 18 weeks of administration (FIG. 4)
  Sirius red-positive area in the liver (inhibitory effect on the increase vs Vehicle group): statistically significant inhibitory effect

— US12023320B2, “Therapeutic agent for fatty liver disease” (EA PHARMA CO., LTD., priority 2020, dated 2024)
